Experimental data from US20170305861A1, “HETEROARYL COMPOUNDS COMPRISING NITROGEN AND USE THEREOF” (ImmunoMet Therapeutics, Inc, priority 2016, published 2017).
Read-outs that look alike come from different tables or passages of the source.

Columns and labels:
SK-MEL-28 cells = experiment: Inhibitory effect of cancer cell proliferation, MTT; format: cell-based; details: Homo sapiens, SK-MEL-28, 72 hours, MTT
Procedure: The compounds prepared in the above Examples were evaluated for the inhibitory effect of cancer cell proliferation according to the method described in the following Test Example.
SK-MEL-28 cells derived from human melanoma were used, and the concentration (cell growth inhibitory concentration, IC50) at which cell growth was inhibited to 50% was measured using MTT reagent (3-(4,5-dimethylthiazole-2-yl)-2,5-[…] bromide) to confirm the inhibitory effect of cancer cell proliferation of the drugs synthesized in Examples 1 to 84.
First, SK-MEL-28 cells were cultured in 96-well plates at a cell number of about 1,250 in RPMI-1640 medium containing 11.1 mM glucose and 10% calf blood serum or 0.75 mM glucose and 10% calf blood serum, and were cultured for 16 hours. […] After treatment of the compound, MTT was added to the culture medium to confirm living cells and further cultured for 2 hours. The resulting formazane crystal was dissolved using dimethyl sulfoxide, and the absorbance of the solution was measured at 555 nm. After culturing for 72 hours, the number of viable cells in the well plate treated with the compounds synthesized in the Examples relative to the number of cells cultured in the well plate without treatment of the compounds was expressed as cell viability (%) according to each treatment concentration. By using this, a cell viability curve graph was prepared, and the inhibitory effect of cancer cell proliferation was confirmed by calculating the concentration of the compound whose growth was inhibited to 50% (IC50).

[1] = system: A549 cell lines (lung cancer cell lines); experiment: Oxygen Consumption Rate (OCR) of cells, corrected for cell viability (Cyquant); format: cell-based; details: Homo sapiens; A549 cells, 24 h drug treatment, OCR value reflecting cell viability; read-out: OCR IC50
Procedure: The compounds synthesized by the methods disclosed in the Examples of the present invention have been measured on oxygen consumption rate and extracellular oxidation by the methods disclosed in the Test Examples below.
3×10^3 cells from A549 cell lines (purchased from ATCC-American Type Culture Collection), which are lung cancer cell lines, were placed on XF96 cell culture plates using RPMI1640 medium, and cultured at 37° C. in a 5% CO2 condition for 16 hours or more for attachment.
After 16 hours, the cells were treated with the drug at six different concentrations between 0 μM and 20 μM. After 24 hours, the existing medium was removed, and XF assay medium (15 mM D-Glucose, 15 mM sodium pyruvate, 4 mM L-Glutamine, pH 7.4) was added. The cells were retreated with the drug, and additionally cultured in Prep station at 37° C. in a non-CO2 condition for 1 hour. During the one-hour culture in the Prep station, a sensor cartridge was placed and calibrated for 20 minutes, and a plate with cells was placed to analyze the OCR. After the analysis was completed, XF96 plate was measured for cell viability using Cyquant assay, which measures the amount of intracellular DNA, in the following method. XF assay medium and the drug were removed, and the cells were placed in a cryogenic refrigerator (−80° C.) for at least 4 hours to be frozen. After the plate was made to be at room temperature, a solution where a lysis buffer and fluorescent GR dye were mixed was placed by 200 μL per well. After 20-minute reaction at room temperature, […] was measured between […] to calculate cell viability. A measured value of a well untreated with the drug was converted to 100% by reflecting cell viability to the OCR value. Concentration of a drug which inhibits the OCR value reflecting cell viability by 50% was calculated.

[2] = system: RENCA mouse kidney cancer cells; experiment: Antitumor effect in mouse kidney cancer cells, subcutaneous RENCA implant in BALB/c mice; format: in vivo; details: for volume of tumor: 10 mg/kg intraperitoneally once a day, BALB/c mice
Procedure: RENCA, which are mouse kidney cancer cells, were cultured in RPMI 1640 medium containing 10% FBS and 1% anti-anti at 37° C. and 5% CO2. 8- to 10-week-old BALB/c mice with a body weight range of 18 g to 20 g were subjected to a 7-day acclimation period, and then 1×10^6/0.1 mL of RENCA cells in PBS were subcutaneously implanted on the right side of the backs of the mice. Seven days after implantation, group separation was performed based on the average of tumor volumes when the tumor volumes reached […]. A vehicle control group was intraperitoneally injected with PBS containing 2% DMSO and 2% Tween80, and an Example 62 administration group was intraperitoneally injected at a dose of 10 mg/kg, once a day for 2 weeks. Tumor volume measurements were performed twice weekly using Vemier calipers, and the volume of tumor was calculated by substituting long axis and short axis for 0.5×long axis×short axis^2.

[3] = 0.75 mM glucose, read-out: SK-MEL-28 0.75 mM glucose Cell viability (IC50 μM)
[4] = 11.1 mM glucose, read-out: SK-MEL-28 11.1 mM glucose Cell viability (IC50 μM)

| IC50 (SK-MEL-28 cells; [3]) | IC50 (SK-MEL-28 cells; [4]) | IC50 [1] | SMILES | volume of tumor ([2]; day 7 post tumor implantation (group separation)) | volume of tumor ([2]; day 9 post tumor implantation) | volume of tumor ([2]; day 12 post tumor implantation) | volume of tumor ([2]; day 14 post tumor implantation) | volume of tumor ([2]; day 16 post tumor implantation) | volume of tumor ([2]; day 20 post tumor implantation) | tumor growth compared with the vehicle control group ([2]; from the 6th day of administration, 10 mg/kg intraperitoneally once a day for 2 weeks) |
| --- | --- | --- | --- | --- | --- | --- | --- | --- | --- | --- |
| 3.1 µM | 40.1 µM | 1 µM | Br.c1cc(C[n+]2ccc(N3CCCC3)cc2)cs1 [Example 62, 4-(Pyrrolidin-1-yl)-1-(thiophen-3-ylmethyl)pyridinium bromide] | 81 ± 7 mm³ | 146 ± 17 mm³ | 227 ± 39 mm³ | 364 ± 68 mm³ | 545 ± 132 mm³ | 775 ± 206 mm³ | remarkably inhibited tumor growth |
| 4.15 µM | 58.4 µM | 2.1 µM | Nc1cc(N2CCC2)cc[n+]1Cc1ccsc1 [Example 81] |  |  |  |  |  |  |  |
